# Reference: ChEMBL document CHEMBL1144982, “Ganglioside GM1 mimics: lipophilic substituents improve affinity for cholera toxin” (Bioorg Med Chem Lett, 2003)
# Test: Dissociation constant by non-linear regression analysis
# Assay type: physicochemical
row,Structure (SMILES),Kd
1,CC(=O)N[C@@H]1[C@H](O[C@H]2C[C@H](C(=O)OC(C)(C)C)[C@@H](C(=O)OC(C)(C)C)C[C@H]2O[C@H](C)C(=O)O)O[C@@H](CO)[C@H](O)[C@@H]1O[C@@H]1O[C@@H](CO)[C@H](O)[C@H](O)[C@@H]1O,190 µM
2,CC(=O)N[C@@H]1[C@H](O[C@H]2C[C@H](C(=O)OC(C)(C)C)[C@@H](C(=O)OC(C)(C)C)C[C@H]2O[C@H](CC2CCCCC2)C(=O)O)O[C@@H](CO)[C@H](O)[C@@H]1O[C@@H]1O[C@@H](CO)[C@H](O)[C@H](O)[C@@H]1O,45 µM
3,CC(=O)N[C@@H]1[C@H](O[C@H]2C[C@H](C(=O)OC(C)(C)C)[C@@H](C(=O)OC(C)(C)C)C[C@H]2O[C@H](Cc2ccccc2)C(=O)O)O[C@@H](CO)[C@H](O)[C@@H]1O[C@@H]1O[C@@H](CO)[C@H](O)[C@H](O)[C@@H]1O,10 µM
